The values that follow are results of earlier work, collected in patent US6419954B1, “Tablets and methods for modified release of hydrophilic and other active agents” (Yamanouchi Pharmaceutical Co., Ltd., priority 2000, dated 2002).

For this data set the following is noted: at 25° C.

Counter-ions that a name gives are not always drawn. Like-named read-outs stand apart in the source and are kept apart here.

Consider `CC1OC2(CS1)CN1CCC2CC1` (racemic) [Cevimeline HCl, (+/−)-cis-2-methylspiro [1,3-oxathiolane-5,3′-quinuclidine]hydrochloride, hemihydrate], for which the water solubility entry (hemihydrate) is recorded as “about 766 mg/ml” and the water solubility result (listed as SNI-2011, hemihydrate) is recorded as “about 1,400 mg/ml”.
